According to ChEMBL document CHEMBL1150248, “Halogenated derivatives QSAR model using spectral moments to predict haloacetic acids (HAA) mutagenicity” (Bioorg Med Chem, 2008):

Test system: Salmonella typhimurium
Test: Mutagenic activity in Salmonella Typhimurium TA100 without metabolic activation
Type: toxicity, organism-based
Conditions: salmonella enterica subsp. enterica serovar typhimurium

Q: `O=C(O)C(Cl)(Cl)Br` [BROMODICHLOROACETIC ACID] was tested. Which Activity did it give?
A: Non-toxic

Q: `O=C(O)C(Br)(Br)Br` [TRIBROMOACETIC ACID] was tested. Which Activity did it give?
A: Non-toxic

Q: `O=C(O)C(Cl)(Cl)Cl` [TRICHLOROACETIC ACID] was tested. Which Activity did it give?
A: Non-toxic
